# Results taken from patent US9133186B2, “Hetero ring-fused imidazole derivative having AMPK activating effect” (Shionogi & Co., Ltd., priority 2010, dated 2015).
# What was measured:
# [1] = target: T1, human AMPK α1β1γ1 enzyme (Homo sapiens, UniProt Q13131+Q9Y478); assay: AMPK activator evaluation, Test Example 1 (mobility shift, FL-Peptide 7); format: biochemical; settings: human AMPK α1β1γ1, control without compound = 100%; for Emax: read-out: Emax (maximum rate of increase in activity within the measurement range)
# T1 construct: purchased Carna Biosciences, Inc
# Experimental: To a buffer solution consisting of a 50 mM HEPES-NaOH buffer solution (pH 7.0), 100 mM NaCl, 10 mM magnesium chloride, 0.1% bovine serum albumin, 0.2 mM sodium orthovanadate(V), 1 mM ethylene glycol-bis(2-aminoethyl ether)-N,N,N′,N′-tetraacetic acid (EGTA), 5 mM disodium (3-glycerophosphate and 2 mM dithiothreitol, a human AMPK α1β1γ1 enzyme (manufactured by Carna Biosciences, Inc.) was added in an amount to give a conversion rate of approximately 10% by reaction for 2 hours, and a compound dissolved in DMSO was added thereto so as to have a 1% DMSO concentration. The obtained liquid was left to stand for 10 minutes.
# (§1) To the liquid, a substrate solution consisting of a 50 mM HEPES-NaOH buffer solution (pH 7.0), 100 mM NaCl, 10 mM magnesium chloride, 0.1% bovine serum albumin, 0.2 mM sodium orthovanadate(V), 1 mM ethylene glycol-bis(2-aminoethyl ether)-N,N,N′,N′ tetraacetic acid (EGTA), 5 mM disodium β-glycerophosphate, 2 mM dithiothreitol, 0.4 mM ATP and 3 μM FL-Peptide 7 (manufactured by Caliper Life Sciences, Inc.) was added in equal amount (10 μl in total). The obtained liquid was allowed to react at 25° C. for 2 hours, and 10 μl of 20 mM EDTA was then added thereto to stop the reaction.
# (§2) To detect phosphorylated fluorescent substrates, the reaction liquid was applied to a measuring device, LabChip EZ Reader II manufactured by Caliper Life Science, Inc., for detecting fluorescence by using differences in mobility due to differences in charge. The setting conditions for the device were pressure, −1.5 PSI; upstream voltage, −2250 V; downstream voltage, −400 V; post sample buffer sip time, 40 seconds; final delay, 120 seconds; and peak order, Product First.
# [2] = target: T2, Human AMPK α2β2γ1 (Homo sapiens, UniProt O43741+P54646); assay: AMPK activator evaluation, Test Example 2 (CaMKK2-phosphorylated enzyme, mobility shift); format: biochemical; settings: human AMPK α2β2γ1 phosphorylated with CaMKK2, control = 100%; for Emax: read-out: Emax (maximum rate of increase in activity within the measurement range)
# T2 construct: The full length cDNAs of human AMPK P2 (NM_005399.3) and human AMPK α2 (NM_006252.3); 6×His (N); made in house; host or cells: Escherichia coli BL21 CodonPlus (DE3)-RIL
# Experimental: The full length cDNAs of human AMPK P2 (NM_005399.3) and human AMPK α2 (NM_006252.3) were inserted into the MCS1 and MCS2 of the pETDuet-1 vector to prepare a human AMPK β2 and human AMPK α2 (6×His tag at the 5′ terminus) expressing plasmid. The plasmid was contransfected with an expression plasmid, in which the full length cDNA of human AMPK γ1 (NM_002733.3) had been inserted into pET28b(+), into BL21 CodonPlus (DE3)-RIL to obtain an expression strain. The expression strain was cultured in TB medium, followed by induction with 0.5 mM IPTG, and cultured at 25° C. for 3 hours and then harvested. After ultrasonication, supernatant was collected and applied to Histrap column (GE) and RESOUECE Q 6 ml column (GE) to prepare 12.5 mg of purified sample containing three types of subunit from 1.8 L of broth.
# An expression vector, in which the full length cDNA of human CAMKK β (NM_172226.1) had been inserted into pGEX-6P-3, was transfected into BL21 Star (DE3). The expression strain was cultured in TB medium, followed by induction with 0.5 mM IPTG, and cultured at 25° C. for 3 hours and then harvested. After ultrasonication, supernatant was collected and applied to GSTrap FF column (GE) to prepare 14 mg of GST-fused CAMKK β from 720 ml of broth.
# Thus, phosphorylation treatment was carried out as pretreatment.
# Human AMPK α2β2γ1 in an amount to give a conversion rate of approximately 10% by reaction for 2 hours, and CaMKK2 in an amount capable of sufficiently imparting activity to AMPK for one hour were mixed in a buffer solution consisting of a 50 mM HEPES-NaOH buffer solution (pH 7.0), 100 mM NaCl, 5 mM magnesium chloride, 0.1% bovine serum albumin, 0.2 mM sodium orthovanadate(V), 1 mM ethylene glycol-bis(2-aminoethyl ether)-N,N,N′,N′-tetraacetic acid (EGTA), 5 mM disodium β-glycerophosphate, 1 mM dithiothreitol and 0.2 mM ATP, and the obtained liquid was left to stand at 25° C. for 1 to 1.5 hours to sufficiently phosphorylate AMPK.
# After that, to the enzyme liquid, which had been subjected to phosphorylation treatment, a compound dissolved in DMSO was added so as to have a 1% DMSO concentration. The obtained liquid was left to stand for 10 minutes.
# as §1, with “ether)-N,N,N′,N′-tetraacetic” for “ether)-N,N,N′,N′ tetraacetic”, “glycerophosphate,” for “β-glycerophosphate,”
# as §2
# A conversion rate was calculated from the peak heights of the resulting substrate and product. The conversion rate when not containing a compound was used as a control, and a concentration dependent curve was made by plotting the rate of increase in activity to the control at each concentration of a compound.
# T1 sequence (Q13131 10-559 limits assumed): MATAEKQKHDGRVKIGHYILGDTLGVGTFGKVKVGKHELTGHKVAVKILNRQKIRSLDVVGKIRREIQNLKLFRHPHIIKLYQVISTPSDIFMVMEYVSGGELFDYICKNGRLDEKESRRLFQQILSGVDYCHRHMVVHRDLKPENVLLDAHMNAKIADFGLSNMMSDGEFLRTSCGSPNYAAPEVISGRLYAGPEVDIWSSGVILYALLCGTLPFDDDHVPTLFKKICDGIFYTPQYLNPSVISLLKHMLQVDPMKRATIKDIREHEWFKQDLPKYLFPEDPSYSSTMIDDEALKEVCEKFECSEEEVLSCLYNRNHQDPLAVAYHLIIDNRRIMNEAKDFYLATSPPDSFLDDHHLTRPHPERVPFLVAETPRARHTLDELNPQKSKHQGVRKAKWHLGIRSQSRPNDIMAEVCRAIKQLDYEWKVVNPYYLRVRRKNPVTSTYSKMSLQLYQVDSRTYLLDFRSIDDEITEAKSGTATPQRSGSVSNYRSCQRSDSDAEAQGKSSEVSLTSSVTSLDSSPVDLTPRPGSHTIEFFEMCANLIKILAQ
# T1 sequence (Q9Y478 whole entry): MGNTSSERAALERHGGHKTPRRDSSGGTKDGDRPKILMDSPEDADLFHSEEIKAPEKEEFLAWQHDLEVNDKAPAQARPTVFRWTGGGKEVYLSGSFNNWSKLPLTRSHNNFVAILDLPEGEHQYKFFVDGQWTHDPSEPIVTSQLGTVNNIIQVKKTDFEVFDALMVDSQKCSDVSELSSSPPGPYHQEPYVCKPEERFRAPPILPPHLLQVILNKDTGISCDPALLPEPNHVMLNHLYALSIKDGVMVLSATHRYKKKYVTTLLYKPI
# T1 sequence (P54619 whole entry partner): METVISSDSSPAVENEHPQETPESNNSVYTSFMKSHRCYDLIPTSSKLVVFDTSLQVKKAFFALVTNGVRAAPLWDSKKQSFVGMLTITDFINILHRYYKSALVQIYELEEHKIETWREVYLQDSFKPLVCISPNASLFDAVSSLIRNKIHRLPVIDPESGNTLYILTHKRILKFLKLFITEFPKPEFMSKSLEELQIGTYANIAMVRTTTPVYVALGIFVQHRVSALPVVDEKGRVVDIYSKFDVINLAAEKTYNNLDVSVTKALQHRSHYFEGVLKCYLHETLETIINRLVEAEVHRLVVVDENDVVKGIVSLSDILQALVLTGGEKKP
# T2 sequence (P54646 whole entry): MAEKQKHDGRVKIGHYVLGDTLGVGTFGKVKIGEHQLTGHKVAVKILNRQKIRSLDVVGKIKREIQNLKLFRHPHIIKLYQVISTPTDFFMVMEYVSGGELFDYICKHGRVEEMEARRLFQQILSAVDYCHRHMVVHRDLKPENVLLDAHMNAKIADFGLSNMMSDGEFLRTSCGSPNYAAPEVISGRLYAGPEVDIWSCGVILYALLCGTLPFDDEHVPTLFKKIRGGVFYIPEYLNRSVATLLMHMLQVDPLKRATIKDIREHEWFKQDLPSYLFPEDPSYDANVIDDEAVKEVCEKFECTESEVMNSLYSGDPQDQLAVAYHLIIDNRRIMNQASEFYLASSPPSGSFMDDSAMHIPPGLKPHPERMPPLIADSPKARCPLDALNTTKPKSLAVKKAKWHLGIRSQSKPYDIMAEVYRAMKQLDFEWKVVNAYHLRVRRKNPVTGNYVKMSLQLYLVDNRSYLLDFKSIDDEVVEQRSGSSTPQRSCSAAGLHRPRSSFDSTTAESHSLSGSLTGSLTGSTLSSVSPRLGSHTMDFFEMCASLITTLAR
# T2 sequence (O43741 whole entry): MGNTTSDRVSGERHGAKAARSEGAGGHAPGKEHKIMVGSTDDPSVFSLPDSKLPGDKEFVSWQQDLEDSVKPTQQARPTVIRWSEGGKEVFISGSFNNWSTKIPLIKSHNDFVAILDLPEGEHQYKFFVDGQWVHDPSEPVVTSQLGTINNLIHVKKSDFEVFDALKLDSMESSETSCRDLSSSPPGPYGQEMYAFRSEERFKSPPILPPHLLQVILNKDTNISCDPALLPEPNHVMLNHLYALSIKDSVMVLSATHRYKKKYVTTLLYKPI
# T2 sequence (P54619 whole entry partner): as the sequence (P54619 whole entry partner) above
Structure (SMILES),EC150 (compound concentration showing 150% relative to the control) [1] [nM],Emax [1] [%],EC150 (compound concentration showing 150% relative to the control) [2] [nM],Emax [2] [%]
Cc1ccc(Oc2nc3cc(Cl)c(-c4ccc(-c5ccccc5O)cc4)nc3[nH]2)cc1C(=O)O [Compound C-4],0.42,355,4.3,292
Cc1ncc(Oc2nc3nc(-c4ccc(N5CCOCC5)cc4)c(Cl)cc3[nH]2)cn1 [Compound C-106],690,278,580,290
O=C(O)c1ccc(Oc2nc3nc(-c4ccc(N5CCOCC5)cc4)c(Cl)cc3[nH]2)cc1 [Compound B-101],120,269,1300,212
CC(=O)NC(C)(C)c1ccc(Oc2nc3nc(-c4ccc(N5CCC(O)C5)cc4)c(Cl)cc3[nH]2)cc1 [Compound D-49],3.5,263,54,420
Cc1ccc(Oc2nc3nc(-c4ccc(N5CCOCC5)cc4)c(Cl)cc3[nH]2)cn1 [Compound B-119],220,265,240,242
Cc1ccc(Oc2nc3nc(-c4ccc5c(ccn5C)c4)c(Cl)cc3[nH]2)cc1C(=O)O [Compound A-2],7,408,74,406
O=C(O)C1(c2ccc(Oc3nc4nc(-c5ccc(N6CCCC6)cc5)c(Cl)cc4[nH]3)cc2)CC1 [Compound C-94],12,352,59,325
Cc1ccc(Oc2nc3nc(-c4ccc(N5CCOCC5)cc4)c(Cl)cc3[nH]2)cc1C(N)=O [Compound C-12],140,256,130,293
Cc1ccc(C(=O)O)cc1Oc1nc2nc(-c3ccc(N4CCOCC4)cc3)c(Cl)cc2[nH]1 [Compound B-108],27,340,410,341
